Results as given in the SangsterLogP compilation.

Experiment: method code SF-AS, from Novello, F.; Sprague, M. (1967). Structure-activity relations among the thiazole diuretics. Ind. Chim. Belge, 32(Spec.No.), 222-225.

| SMILES | logD (pH 6.4) | logD (pH 6.5) |
| --- | --- | --- |
| Cc1cc2c(cc1S(N)(=O)=O)S(=O)(=O)NCN2 |  | -0.22 |
| NS(=O)(=O)c1ccc2c(c1)S(=O)(=O)NCN2 |  | -0.52 |
| NS(=O)(=O)c1cc2c(cc1[N+](=O)[O-])N=CNS2(=O)=O |  | 0.08 |
| NS(=O)(=O)c1cc2c(cc1Cl)N=C(c1ccccc1)NS2(=O)=O |  | 1.1 |
| NS(=O)(=O)c1cc2c(cc1C(F)(F)C(F)(F)F)N=CNS2(=O)=O |  | 1.05 |
| CCCCCC1=NS(=O)(=O)c2cc(S(N)(=O)=O)c(Cl)cc2N1 |  | 2.01 |
| NS(=O)(=O)c1cc2c(cc1C(F)(F)F)N=CNS2(=O)=O |  | 0.32 |
| NS(=O)(=O)c1cc2c(cc1Br)N=CNS2(=O)=O |  | 0 |
| NS(=O)(=O)c1cc2c(cc1[N+](=O)[O-])NCNS2(=O)=O |  | 0.2 |
| Cc1cc2c(cc1S(N)(=O)=O)S(=O)(=O)N=CN2 |  | -0.32 |
| NS(=O)(=O)c1cc2c(cc1F)N=CNS2(=O)=O |  | -0.29 |
| NS(=O)(=O)c1ccc2c(c1)S(=O)(=O)NC=N2 |  | -0.62 |
| CC1CCC2(CC1)Nc1ccc(S(N)(=O)=O)cc1S(=O)(=O)N2 (stereo not drawn) |  | 1.56 |
| NS(=O)(=O)c1ccc2c(c1)S(=O)(=O)NC(CC1CCCC1)N2 (stereo not drawn) |  | 1.24 |
| NS(=O)(=O)c1cc2c(cc1Cl)N=C(Cc1ccccc1)NS2(=O)=O |  | 1.56 |
| NS(=O)(=O)c1ccc2c(c1)S(=O)(=O)NC(Cc1ccccc1)N2 (stereo not drawn) |  | 1.03 |

Results, then the compound that gave them:

| logD (pH 6.4) | logD (pH 6.5) | SMILES |
| --- | --- | --- |
| 1.11 |  | NS(=O)(=O)c1cc2c(cc1Cl)NC(CSCc1ccccc1)NS2(=O)=O (stereo not drawn) |
|  | 0.36 | CC(C)(C)C1Nc2cc(Cl)c(S(N)(=O)=O)cc2S(=O)(=O)N1 (stereo not drawn) |
|  | 1.27 | NS(=O)(=O)c1cc2c(cc1Cl)NC(CC1CCCC1)NS2(=O)=O (stereo not drawn) |
|  | 1 | NS(=O)(=O)c1cc2c(cc1Cl)NC1(CCCCC1)NS2(=O)=O |
|  | 0.11 | NS(=O)(=O)c1cc2c(cc1Cl)NC(CCl)NS2(=O)=O (stereo not drawn) |
|  | 0.3 | CCC1Nc2cc(Cl)c(S(N)(=O)=O)cc2S(=O)(=O)N1 (stereo not drawn) |
|  | 0.08 | CC1Nc2cc(Cl)c(S(N)(=O)=O)cc2S(=O)(=O)N1 (stereo not drawn) |
|  | 0.93 | NS(=O)(=O)c1cc2c(cc1Cl)NC(Cc1ccccc1)NS2(=O)=O (stereo not drawn) |
|  | 1.8 | NS(=O)(=O)c1cc2c(cc1Cl)NC(C1CC3C=CC1C3)NS2(=O)=O (stereo not drawn) |
|  | 0.15 | CC1(C)Nc2cc(Cl)c(S(N)(=O)=O)cc2S(=O)(=O)N1 |
|  | 0.82 | NS(=O)(=O)c1cc2c(cc1Cl)NC(C(Cl)(Cl)Cl)NS2(=O)=O (stereo not drawn) |
|  | 0.08 | NS(=O)(=O)c1cc2c(cc1Br)NCNS2(=O)=O |
|  | 0.49 | NS(=O)(=O)c1cc2c(cc1Cl)NC(C(F)(F)F)NS2(=O)=O (stereo not drawn) |
|  | 0.03 | CC1=Nc2cc(Cl)c(S(N)(=O)=O)cc2S(=O)(=O)N1 |
|  | 0.46 | NS(=O)(=O)c1ccc2c(c1)S(=O)(=O)NC(C(Cl)Cl)N2 (stereo not drawn) |
|  | 0.85 | CC1CCC2(CC1)Nc1cc(Cl)c(S(N)(=O)=O)cc1S(=O)(=O)N2 (stereo not drawn) |
|  | 1.15 | CCCC1=Nc2cc(Cl)c(S(N)(=O)=O)cc2S(=O)(=O)N1 |
